# Data as given in US11780821B2, “Inhibitors of fibroblast activation protein” (Praxis Biotech LLC, priority 2017, dated 2023).
# What was measured:
# [1] = target: T1, recombinant human FAP (rhFAP) (Homo sapiens, UniProt Q12884); assay: Inhibition of FAP-mediated digestion of FGF21 in vitro; format: biochemical
# T1 construct: purchased R&D systems 3715-SE-010
# T1 sequence (Q12884 1-760): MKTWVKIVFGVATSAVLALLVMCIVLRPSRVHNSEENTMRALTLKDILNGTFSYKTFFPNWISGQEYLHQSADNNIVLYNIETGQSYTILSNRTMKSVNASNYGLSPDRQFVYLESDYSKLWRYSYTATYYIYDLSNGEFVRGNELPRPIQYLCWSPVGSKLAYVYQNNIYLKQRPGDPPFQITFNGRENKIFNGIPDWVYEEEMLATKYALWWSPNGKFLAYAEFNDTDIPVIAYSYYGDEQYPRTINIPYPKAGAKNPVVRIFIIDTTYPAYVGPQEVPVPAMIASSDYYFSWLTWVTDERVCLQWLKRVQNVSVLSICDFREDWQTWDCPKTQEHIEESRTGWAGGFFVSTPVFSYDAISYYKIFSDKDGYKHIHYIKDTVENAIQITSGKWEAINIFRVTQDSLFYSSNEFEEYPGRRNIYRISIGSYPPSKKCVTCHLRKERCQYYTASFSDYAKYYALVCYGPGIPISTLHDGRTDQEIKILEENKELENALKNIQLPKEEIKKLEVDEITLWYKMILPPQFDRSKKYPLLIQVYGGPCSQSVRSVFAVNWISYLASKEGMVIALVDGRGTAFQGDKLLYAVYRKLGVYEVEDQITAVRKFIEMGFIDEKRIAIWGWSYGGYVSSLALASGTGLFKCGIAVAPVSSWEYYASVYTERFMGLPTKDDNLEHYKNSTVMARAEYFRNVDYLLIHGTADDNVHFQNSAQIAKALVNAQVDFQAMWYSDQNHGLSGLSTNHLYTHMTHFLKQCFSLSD
# Description: Recombinant human FGF21 (rhFGF21; Cat. No. #2539-FG-025/CF, R&D systems) was incubated overnight (16 h) at 37° C. with recombinant human FAP (rhFAP; Cat. No. #3715-SE-010, R&D systems) in digestion buffer (50 mM Tris pH 7.4, 100 mM NaCl, 0.1 mg/ml bovine serum albumin). Reactions were carried out at final concentrations of 1000 ng/mL hFGF21 and 400, 800 or 1200 ng/mL rhFAP in a volume of 100 μL. For SDS-PAGE analysis, after incubation each sample received immediately 4× Laemmli protein sample buffer (Cat. No. #161-0747, Bio-Rad) supplemented with 0.1 ml […]/10 ml aliquot and then boiled at 95° C. during 10 min. An aliquot of 15 μL of each sample were then loaded onto a reducing 20% Tris-Tricine SDS-PAGE gel. For immunoblot analysis, proteins were separated on SDS-PAGE gels and transferred to PVDF membranes (Cat. No. #1620177, Bio-Rad). […] Proteins were detected using the ECL Western Blotting Substrate (Cat. No. #32106, Thermo Fisher Scientific) and visualized using a ChemiDoc™ Imaging System (Biorad) and Image lab software v5.2.1 build 11. […]
# Additionally, the IC50 for FAP-mediated proteolytic cleavage of FGF21, was determined in the using a serial dilution of compound 13 (an exemplary compound).
# endogenous FAP in plasma = assay: PD study in hamsters: plasma FAP activity and endogenous FGF21; format: in vivo, Golden Syrian hamsters; details: hamster, 1 mg/kg IV or 10 mg/kg PO
# Description: To assess the effect of FAP inhibition by an exemplary compound over the cleavage of endogenously produced FGF21, in vivo PK/PD studies were conducted in male Golden Syrian hamsters following single intravenous and oral administration of an exemplary compound.
# Hamsters from Group 1 received an intravenous bolus via jugular vein of 1 mg/kg of compound 13 (an exemplary compound). On the other hand, hamsters from Group 2 received an intragastric bolus of 10 mg/kg of compound 13 (an exemplary compound) using feeding needles.
# Plasma samples were collected at 5, 10, 15, 30, 60, 120, 240, 360, 480 and 1440 minutes post-dose in both IV and PO groups. Hamsters from group 3 were not dosed and were used to collect samples of zero time point and baseline levels of FAP activity and endogenous FGF21.
# Blood aliquots (100-150 μL) were collected from jugular vein catheterized hamsters in tubes coated with EDTA-K2, mixed gently, then kept on ice and centrifuged at 2,500×g for 15 minutes at 4° C., within 1 hour of collection. […]
# Levels of endogenous hamster FGF21 in the plasma samples were quantified by using an ELISA kit (Cat. No. #EZRMFGF21-26K, Millipore) according to the manufacturer's instructions. […] Plasma samples of non-dosed animals were analyzed as a pool of plasma. […]
smiles,measurement,setting,value
"N#C[C@@H]1CC(F)(F)CN1C(=O)CNC(=O)c1ccncc1-c1ccccc1 [Compound 13, (S)—N-(2-(2-cyano-4,4-difluoropyrrolidin-1-yl)-2-oxoethyl)-3-phenylisonicotinamide]","inhibition of proteolytic processing of rhFGF21 by rhFAP (intact rhFGF21, Western blot)","[1]; 100 and 1000 nM, 16 h at 37° C.",intact form of rhFGF21 is preserved
same,IC50 for FAP-mediated proteolytic cleavage of FGF21,"[1]; serial dilution, densitometry",nanomolar range
same,FAP activity in plasma compared with baseline levels,endogenous FAP in plasma,diminished quickly
same,levels of total endogenous FGF21 in plasma,endogenous FAP in plasma; ELISA,increased in the most of hamsters
